Experimental data as given in ChEMBL document CHEMBL1201862, “PubChem BioAssay data set” (2004).
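Assay format: 96-well plates, 48-hour exposure. The concentration for 50% growth inhibition is given as GI50.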 Active and inactive are the calls of the source. Rule as the data show it: active = GI50 up to about 1.1 µM and inactive = higher.

Columns and labels:
Test in all cases: inhibition of tumour cell growth, NCI panel, 48 h
[1] = test system: SK-MEL-2
[2] = test system: HOP-92
[3] = test system: T47D
[4] = test system: LOX IMVI
[5] = test system: SF-295
[6] = test system: RPMI-8226
[7] = test system: NCI-H23
[8] = test system: CCRF-CEM
[9] = test system: ACHN
[10] = test system: OVCAR-8
[11] = test system: OVCAR-4
[12] = test system: SNB-75
[13] = test system: SK-MEL-5
[14] = test system: SR
[15] = test system: KM12
[16] = test system: HT-29
[17] = test system: RXF 393
[18] = test system: NCI-H460
[19] = test system: NCI/ADR-RES
[20] = test system: OVCAR-5

SMILES	GI50 [1]	GI50 [2]	GI50 [3]	GI50 [4]	GI50 [5]	GI50 [6]	GI50 [7]	GI50 [8]	GI50 [9]	GI50 [10]	GI50 [11]	GI50 [12]	GI50 [13]	GI50 [14]	GI50 [15]	GI50 [16]	GI50 [17]	GI50 [18]	GI50 [19]	GI50 [20]
O=c1c2cc(O)c(O)cc2oc2cc(O)c(C3OC(CO)C(O)C(O)C3O)c(O)c12 (stereo not given)	> 100 µM (inactive)	> 100 µM (inactive)	> 100 µM (inactive)	> 100 µM (inactive)	> 100 µM (inactive)	> 100 µM (inactive)	> 100 µM (inactive)	> 100 µM (inactive)	> 100 µM (inactive)	> 100 µM (inactive)	> 100 µM (inactive)	> 100 µM (inactive)	> 100 µM (inactive)	> 100 µM (inactive)	> 100 µM (inactive)	> 100 µM (inactive)	> 100 µM (inactive)	> 100 µM (inactive)	> 100 µM (inactive)	> 100 µM (inactive)
N#Cc1c(C#N)c(SSc2c(C#N)c(C#N)c(N)n2-c2cccc3ccccc23)n(-c2cccc3ccccc23)c1N	15.3 µM (inactive)	4.71 µM (inactive)	1.92 µM (inactive)	7.94 µM (inactive)	19.9 µM (inactive)	2.76 µM (inactive)	11.2 µM (inactive)	1.97 µM (inactive)	5.15 µM (inactive)	4.36 µM (inactive)	6.01 µM (inactive)	5.62 µM (inactive)	20.2 µM (inactive)	2.34 µM (inactive)	41.6 µM (inactive)	19.7 µM (inactive)	6.08 µM (inactive)	46.8 µM (inactive)	25.1 µM (inactive)	24.2 µM (inactive)
O=C(O)C1CCCCC1C(=O)Nc1nc2ccccc2[nH]1 (stereo not given)	> 100 µM (inactive)	> 100 µM (inactive)	> 100 µM (inactive)	> 100 µM (inactive)	> 100 µM (inactive)	> 100 µM (inactive)	> 100 µM (inactive)	> 100 µM (inactive)	> 100 µM (inactive)	> 100 µM (inactive)	> 100 µM (inactive)	> 100 µM (inactive)	> 100 µM (inactive)	> 100 µM (inactive)	> 100 µM (inactive)	> 100 µM (inactive)	> 100 µM (inactive)	> 100 µM (inactive)	> 100 µM (inactive)	> 100 µM (inactive)
O=C1/C(=C\c2cccc(Oc3ccccc3)c2)S(=O)(=O)C(c2ccccc2)N1c1ccccc1Cl (stereo not given)	26 µM (inactive)	17.9 µM (inactive)	16.3 µM (inactive)	29.2 µM (inactive)	30.8 µM (inactive)	16.3 µM (inactive)	24.4 µM (inactive)	19.1 µM (inactive)	27.8 µM (inactive)	23.4 µM (inactive)	15.4 µM (inactive)	20 µM (inactive)	17.4 µM (inactive)	17.9 µM (inactive)	27 µM (inactive)	22.6 µM (inactive)	29 µM (inactive)	32.6 µM (inactive)	29.4 µM (inactive)	33.7 µM (inactive)
COc1cc(OC)c(/C=C\c2cc(/C=C/c3c(OC)cc(OC)cc3OC)c3ccccc3[n+]2C)c(OC)c1	1.74 µM (inactive)	2.95 µM (inactive)	2.37 µM (inactive)	4.07 µM (inactive)	2.31 µM (inactive)	2 µM (inactive)	2.76 µM (inactive)	1.38 µM (inactive)	4.59 µM (inactive)	1.94 µM (inactive)	8.39 µM (inactive)	2.77 µM (inactive)	1.31 µM (inactive)	2.24 µM (inactive)	2.98 µM (inactive)	1.83 µM (inactive)	3.41 µM (inactive)	2.21 µM (inactive)	> 100 µM (inactive)	13.2 µM (inactive)
O=C(Nc1ccccc1C(=O)NCCCO)/C(=C/c1ccccc1O)NC(=O)c1ccccc1	44.3 µM (inactive)	53.3 µM (inactive)	16.3 µM (inactive)	21.5 µM (inactive)	34.4 µM (inactive)	> 100 µM (inactive)	36.1 µM (inactive)	> 100 µM (inactive)	30.8 µM (inactive)	> 42.7 µM (inactive)	56.8 µM (inactive)	20.2 µM (inactive)	> 100 µM (inactive)	> 100 µM (inactive)	18.4 µM (inactive)	> 100 µM (inactive)	28.1 µM (inactive)	> 72.1 µM (inactive)	17 µM (inactive)	> 100 µM (inactive)
CN(C(=O)CCC(=O)O)c1ccccc1C(=O)O	> 100 µM (inactive)	> 100 µM (inactive)	> 100 µM (inactive)	> 100 µM (inactive)	> 100 µM (inactive)	> 100 µM (inactive)	> 100 µM (inactive)	> 100 µM (inactive)	> 100 µM (inactive)	> 100 µM (inactive)	> 100 µM (inactive)	> 100 µM (inactive)	> 100 µM (inactive)	> 100 µM (inactive)	> 100 µM (inactive)	> 100 µM (inactive)	> 100 µM (inactive)	> 100 µM (inactive)	> 100 µM (inactive)	> 100 µM (inactive)
CC1=C[C@@H](C)C[C@]2(C)CC[C@H](O2)[C@]23CC[C@](CO)(C[C@H](O2)[C@@H]2O[C@@](C)(CC2=O)[C@@H](O)[C@H]2CC[C@@]4(CCC[C@@H](O4)[C@H](C)C(=O)O[C@H]4C[C@H]([C@]5(O)OCC[C@H](C)[C@@H]5O)O[C@H]4C=C1)O2)O3	0.0513 µM (active)	0.00163 µM (active)	0.427 µM (active)	0.001 µM (active)	0.00341 µM (active)	> 10 µM (inactive)	0.0935 µM (active)	0.00471 µM (active)	0.0249 µM (active)	0.0562 µM (active)	0.0179 µM (active)	0.001 µM (active)	0.0142 µM (active)	0.0139 µM (active)	0.757 µM (active)	0.0166 µM (active)	0.0118 µM (active)	0.0333 µM (active)	> 5.18 µM (inactive)	0.0316 µM (active)
Cn1cnc2c(NCc3ccccc3)nc(NCCO)nc21 [OLOMOUCINE]	98.9 µM (inactive)	61.2 µM (inactive)	50.5 µM (inactive)	24 µM (inactive)	41.1 µM (inactive)	53.8 µM (inactive)	59.6 µM (inactive)	54.6 µM (inactive)	35.9 µM (inactive)	66.2 µM (inactive)	94.2 µM (inactive)	21.3 µM (inactive)	40.6 µM (inactive)	29.7 µM (inactive)	35 µM (inactive)	71.4 µM (inactive)	67 µM (inactive)	104 µM (inactive)	> 93.8 µM (inactive)	53 µM (inactive)
Nc1nc2[nH]cnc2c(=S)[nH]1 [THIOGUANINE]	1 µM (active)	0.818 µM (active)	2.07 µM (inactive)	0.207 µM (active)	1.08 µM (active)	0.438 µM (active)	1.1 µM (active)	0.169 µM (active)	1.86 µM (inactive)	0.687 µM (active)	1.45 µM (inactive)	1.48 µM (inactive)	3.5 µM (inactive)	0.182 µM (active)	1.71 µM (inactive)	1.13 µM (inactive)	0.865 µM (active)	0.624 µM (active)	0.671 µM (active)	0.692 µM (active)
